In ChEMBL document CHEMBL3580594, “Synthesis and biological evaluation of 4-substituted fluoronucleoside analogs for the treatment of hepatitis B virus infection” (J Med Chem, 2015):

How the values were obtained:
Hepatitis B virus [1] = assay: Antiviral activity against Hepatitis B virus in HepG2.2.15 cells assessed as inhibition of intracellular/extracellular viral DNA replication at 0.2 to 5 uM by real-time FQ-PCR analysis; format: functional, organism-based; details: HepG2 2.2.15, TDE = time-dependent effect
Mus musculus [2] = assay: Acute toxicity in KM mouse assessed as adverse effect at 200 mg/kg, iv suspended in normal saline; format: organism-based; details: in vivo
Mus musculus [3] = assay: Acute toxicity in KM mouse assessed as death at 400 mg/kg, iv suspended in normal saline; format: organism-based; details: in vivo
Mus musculus [4] = assay: Acute toxicity in KM mouse assessed as morbidity at 3 g/kg, iv suspended in 0.5% CMC/Na solution after 14 days; format: organism-based; details: in vivo, 3000 mg/kg, 336 h
Mus musculus [5] = assay: Acute toxicity in KM mouse assessed as mortality at 3 g/kg, iv suspended in 0.5% CMC/Na solution after 14 days; format: organism-based; details: in vivo, 3000 mg/kg, 336 h
Mus musculus [6] = assay: Acute toxicity in KM mouse assessed as weight loss at 3 g/kg, iv suspended in 0.5% CMC/Na solution after 14 days; format: organism-based; details: in vivo, 3000 mg/kg, 336 h
Mus musculus [7] = assay: Toxicity in KM mouse assessed as peripheral WBC number in blood per liter at 20 mg/kg, po single dose after 48 hrs (reference value: 11.10 x 2.69/L x 10^-9 cells); format: organism-based; details: in vivo
Mus musculus [8] = assay: Toxicity in KM mouse assessed as peripheral WBC number in blood per liter at 80 mg/kg, po single dose after 48 hrs (reference value: 11.10 x 2.69/L x 10^-9); format: organism-based; details: in vivo
Mus musculus [9] = assay: Toxicity in KM mouse assessed as micronucleus frequency in bone marrow polychromatic erythrocyte at 20 mg/kg, po single dose after 48 hrs (reference value: 2.20 +/- 0.84 %); format: organism-based; details: in vivo
Mus musculus [10] = assay: Toxicity in KM mouse assessed as micronucleus frequency in bone marrow polychromatic erythrocyte at 80 mg/kg, po single dose after 48 hrs (reference value: 2.20 +/- 0.84 %); format: organism-based; details: in vivo
Mus musculus [11] = assay: Toxicity in KM mouse assessed as peripheral WBC number in blood per liter at 5 mg/kg/day, po 5 doses (reference value: 7.47 +/- 33.77 /L x 10^-9 cells); format: organism-based; details: in vivo
Mus musculus [12] = assay: Toxicity in KM mouse assessed as peripheral WBC number in blood per liter at 20 mg/kg/day, po 5 doses (reference value: 7.47 +/- 33.77 /L x 10^-9 cells); format: organism-based; details: in vivo
Mus musculus [13] = assay: Toxicity in KM mouse assessed as micronucleus frequency in bone marrow polychromatic erythrocyte at 5 mg/kg, po single dose after 48 hrs (reference value: 1.20 +/- 0.45 %); format: organism-based; details: in vivo
Mus musculus [14] = assay: Toxicity in KM mouse assessed as micronucleus frequency in bone marrow polychromatic erythrocyte at 20 mg/kg, po single dose after 48 hrs (reference value: 1.20 +/- 0.45 %); format: organism-based; details: in vivo
Hepatitis B virus [15] = assay: Antiviral activity against Hepatitis B virus in HepG2.2.15 cells assessed as inhibition of intracellular viral DNA replication at 5 uM after 3 days by real-time FQ-PCR analysis; format: functional; details: HepG2 2.2.15, 72 h
Hepatitis B virus [16] = assay: Antiviral activity against Hepatitis B virus in HepG2.2.15 cells assessed as inhibition of intracellular viral DNA replication at 0.2 uM after 6 days by real-time FQ-PCR analysis; format: functional; details: HepG2 2.2.15, 144 h
Hepatitis B virus [17] = assay: Antiviral activity against Hepatitis B virus in HepG2.2.15 cells assessed as inhibition of intracellular viral DNA replication at 1 uM after 6 days by real-time FQ-PCR analysis; format: functional; details: HepG2 2.2.15, 144 h
Hepatitis B virus [18] = assay: Antiviral activity against Hepatitis B virus in HepG2.2.15 cells assessed as inhibition of intracellular viral DNA replication at 5 uM after 6 days by real-time FQ-PCR analysis; format: functional; details: HepG2 2.2.15, 144 h
Hepatitis B virus [19] = assay: Antiviral activity against Hepatitis B virus in HepG2.2.15 cells assessed as inhibition of extracellular viral DNA replication at 1 uM after 6 days by real-time FQ-PCR analysis; format: functional; details: HepG2 2.2.15, 144 h
Hepatitis B virus [20] = assay: Antiviral activity against Hepatitis B virus in HepG2.2.15 cells assessed as inhibition of extracellular viral DNA replication at 5 uM after 6 days by real-time FQ-PCR analysis; format: functional; details: HepG2 2.2.15, 144 h
Duck hepatitis B virus [21] = assay: Antiviral activity against duck Hepatitis B virus infected in po dosed duck assessed as inhibition of viral DNA replication in serum; format: functional, organism-based
Duck hepatitis B virus [22] = assay: Antiviral activity against duck Hepatitis B virus infected in duck assessed as inhibition of viral DNA replication in serum at 0.04 to 20 mg/kg, po; format: functional, organism-based; details: TDE = time-dependent effect
Duck hepatitis B virus [23] = assay: Antiviral activity against duck Hepatitis B virus infected in duck assessed as inhibition of viral DNA replication in liver at 0.04 to 20 mg/kg, po; format: functional, organism-based; details: TDE = time-dependent effect
Duck hepatitis B virus [24] = assay: Antiviral activity against duck Hepatitis B virus infected in duck assessed as inhibition of viral DNA replication in serum at 1 mg/kg/day, po treatment initiated at day 5 after infection relative to control; format: functional; details: 120 h
Duck hepatitis B virus [25] = assay: Antiviral activity against duck Hepatitis B virus infected in duck assessed as inhibition of viral DNA replication in serum at 0.2 mg/kg/day, po treatment initiated at day 10 after infection relative to control; format: functional; details: 240 h
Duck hepatitis B virus [26] = assay: Antiviral activity against duck Hepatitis B virus infected in duck assessed as inhibition of viral DNA replication in serum at 1 mg/kg/day, po treatment initiated at day 10 after infection relative to control; format: functional; details: 240 h
Duck hepatitis B virus [27] = assay: Antiviral activity against duck Hepatitis B virus infected in duck assessed as inhibition of viral DNA replication in serum at 0.2 mg/kg/day, po measured after 3 days of treatment withdrawal; format: functional; details: 72 h
Duck hepatitis B virus [28] = assay: Antiviral activity against duck Hepatitis B virus infected in duck assessed as inhibition of viral DNA replication in liver at 0.04 mg/kg/day, po treatment initiated at day 5 after infection relative to control; format: functional; details: 120 h
Duck hepatitis B virus [29] = assay: Antiviral activity against duck Hepatitis B virus infected in duck assessed as inhibition of viral DNA replication in liver at 1 mg/kg/day, po treatment initiated at day 5 after infection relative to control; format: functional; details: 120 h
Duck hepatitis B virus [30] = assay: Antiviral activity against duck Hepatitis B virus infected in duck assessed as inhibition of viral DNA replication in liver at 0.2 mg/kg/day, po treatment initiated at day 10 after infection relative to control; format: functional; details: 240 h
Duck hepatitis B virus [31] = assay: Antiviral activity against duck Hepatitis B virus infected in duck assessed as inhibition of viral DNA replication in liver at 0.04 mg/kg/day, po measured after 3 days of treatment withdrawal; format: functional; details: 72 h
Duck hepatitis B virus [32] = assay: Antiviral activity against duck Hepatitis B virus infected in duck assessed as inhibition of viral DNA replication in liver at 0.2 mg/kg/day, po measured after 3 days of treatment withdrawal; format: functional; details: 72 h
Liver microsome = assay: Drug metabolism in rat liver microsomes assessed as 1-((2R,3S,4R,5R)-5-azido-3-fluoro-4-hydroxy-5-(hydroxymethyl)tetrahydrofuran-2-yl)-4-(2-hydroxycyclopropylamino)pyrimidin-2(1H)-one formation after 2 hrs by LC-MS/MS analysis; format: ADME
Rattus norvegicus = species on record: Rattus norvegicus; assay: Drug metabolism in rat urine sample assessed as 4-amino-1-((2R,3S,4R,5R)-5-azido-3-fluoro-4-hydroxy-5-(hydroxymethyl)tetrahydrofuran-2-yl)pyrimidin-2(1H)-one formation by LC-MS/MS analysis; format: ADME, organism-based; details: in vivo

Q: What does the source list for `[N-]=[N+]=N[C@]1(CO)O[C@@H](n2ccc(NC3CC3)nc2=O)[C@@H](F)[C@@H]1O`?
A: inhibition (Hepatitis B virus [1]): tde; Activity (Mus musculus [2]): Non-toxic; Activity (Mus musculus [3]): Toxic; Activity (Mus musculus [4]): Non-toxic; Activity (Mus musculus [5]): Non-toxic; Activity (Mus musculus [6]): Non-toxic; Activity (Mus musculus [7]): 8.84 ×10⁹ /L; Activity (Mus musculus [8]): 8.26 ×10⁹ /L; Activity (Mus musculus [9]): 1.6%; Activity (Mus musculus [10]): 1.8%; Activity (Mus musculus [11]): 6.05 ×10⁹ /L; Activity (Mus musculus [12]): 6.53 ×10⁹ /L; Activity (Mus musculus [13]): 1.2%; Activity (Mus musculus [14]): 2.8%; inhibition at 5 µM (Hepatitis B virus [15]): 46.2%; inhibition at 0.2 µM (Hepatitis B virus [16]): 31.7%; inhibition at 1 µM (Hepatitis B virus [17]): 49.5%; inhibition at 5 µM (Hepatitis B virus [18]): 53%; inhibition at 1 µM (Hepatitis B virus [19]): 76.7%; inhibition at 5 µM (Hepatitis B virus [20]): 84%; inhibition (Duck hepatitis B virus [21]): Dose-dependent effect; inhibition (Duck hepatitis B virus [22]): tde; inhibition (Duck hepatitis B virus [23]): tde; inhibition in vivo at 1 mg/kg/day (Duck hepatitis B virus [24]): 71.9%; inhibition in vivo at 0.2 mg/kg/day (Duck hepatitis B virus [25]): 69.5%; inhibition in vivo at 1 mg/kg/day (Duck hepatitis B virus [26]): 74.2%; inhibition in vivo at 0.2 mg/kg/day (Duck hepatitis B virus [27]): 66%; inhibition in vivo at 0.04 mg/kg/day (Duck hepatitis B virus [28]): 34.8%; inhibition in vivo at 1 mg/kg/day (Duck hepatitis B virus [29]): 64.1%; inhibition in vivo at 0.2 mg/kg/day (Duck hepatitis B virus [30]): 68.7%; inhibition in vivo at 0.04 mg/kg/day (Duck hepatitis B virus [31]): 58.8%; inhibition in vivo at 0.2 mg/kg/day (Duck hepatitis B virus [32]): 63.1%; Drug metabolism (Liver microsome): metabolite_detected; Drug metabolism (Rattus norvegicus): metabolite_detected
